Assays:
bedstraw = test: Test B pre/postemergence bedstraw; type: in vivo, Galium aparine
Procedure, shortened: (§1)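 Test chemicals in a non-phytotoxic solvent mixture with surfactant were sprayed preemergence onto planted seeds and postemergence onto plants 2 to 18 cm tall (1- to 4-leaf stage). After twelve to sixteen days in a greenhouse, injury was visually rated against untreated controls from 0 (no effect) to 10 (complete control).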

blackgrass = test: Test B pre/postemergence blackgrass; type: in vivo, Alopecurus myosuroides
Procedure, shortened: as §1

surinam grass = test: Test B pre/postemergence surinam grass; type: in vivo, Brachiaria decumbens; settings: Postemergence
Procedure, shortened: as §1

cocklebur = test: Test B pre/postemergence cocklebur; type: in vivo, Xanthium strumarium
Procedure, shortened: as §1

corn = test: Test B pre/postemergence corn; type: in vivo, Zea mays
Procedure, shortened: as §1

crabgrass = test: Test B pre/postemergence crabgrass; type: in vivo, Digitaria sanguinalis
Procedure, shortened: as §1

giant foxtail = test: Test B pre/postemergence giant foxtail; type: in vivo, Setaria faberii
Procedure, shortened: as §1

morningglory = test: Test B pre/postemergence morningglory; type: in vivo, Ipomoea hederacea
Procedure, shortened: as §1

pigweed = test: Test B pre/postemergence pigweed; type: in vivo, Amaranthus retroflexus
Procedure, shortened: as §1

rape = test: Test B pre/postemergence rape; type: in vivo, Brassica napus
Procedure, shortened: as §1

soybean = test: Test B pre/postemergence soybean; type: in vivo, Glycine max
Procedure, shortened: as §1

sugar beet = test: Test B pre/postemergence sugar beet; type: in vivo, Beta vulgaris
Procedure, shortened: as §1

velvetleaf = test: Test B pre/postemergence velvetleaf; type: in vivo, Abutilon theophrasti
Procedure, shortened: as §1

wheat = test: Test B pre/postemergence wheat; type: in vivo, Triticum aestivum
Procedure, shortened: as §1

wild oat = test: Test B pre/postemergence wild oat; type: in vivo, Avena fatua
Procedure, shortened: as §1

purple nutsedge = test: Test B pre/postemergence purple nutsedge; type: in vivo, Cyperus rotundus
Procedure, shortened: as §1

[1] = Postemergence, Rate 62 g/ha, scale 0 to 10, 0 is no effect, 10 is complete control
[2] = Postemergence, Rate 125 g/ha, scale of 0 to 10 where 0 is no effect and 10 is complete control
[3] = Preemergence, Rate 125 g/ha, scale of 0 to 10 where 0 is no effect and 10 is complete control
[4] = Preemergence, Rate 250 g/ha, scale 0 (no effect) to 10 (complete control)
[5] = Rate 62 g/ha, Preemergence, scale 0 to 10
[6] = Rate 250 g/ha, Postemergence, scale 0 to 10, 0 is no effect, 10 is complete control
[7] = Rate 500 g/ha, Postemergence, scale 0 to 10, 0 is no effect, 10 is complete control
[8] = Rate 500 g/ha, Preemergence, scale 0 to 10 (0 no effect, 10 complete control)

## CC(CBr)Cn1c(=O)on(C(=O)N(c2ccc(F)cc2)C(C)C)c1=O (centres unmarked) [Compound 752]
bedstraw; [1]
  Plant response rating, Bedstraw: 0
bedstraw; [2]
  Bedstraw plant response rating: 0
bedstraw; [3]
  Plant response rating, Bedstraw: 10
bedstraw; [4]
  Bedstraw plant response rating: 10
bedstraw; [5]
  Bedstraw plant response rating: 0
bedstraw; [6]
  Bedstraw plant response rating: 2
bedstraw; [7]
  Bedstraw plant response rating: 2
bedstraw; [8]
  Bedstraw plant response rating: 10
blackgrass; [1]
  Plant response rating, Blackgrass: 0
blackgrass; [2]
  Blackgrass plant response rating: 2
blackgrass; [3]
  Plant response rating, Blackgrass: 9
blackgrass; [4]
  Blackgrass plant response rating: 9
blackgrass; [5]
  Blackgrass plant response rating: 4
blackgrass; [6]
  Blackgrass plant response rating: 6
blackgrass; [7]
  Blackgrass plant response rating: 6
blackgrass; [8]
  Blackgrass plant response rating: 10
Surinam grass; Rate 62 g/ha, scale 0 to 10, 0 is no effect, 10 is complete control
  Plant response rating, B. signalgrass: 0
Surinam grass; Rate 125 g/ha, scale of 0 to 10 where 0 is no effect and 10 is complete control
  B. signalgrass plant response rating: 0
Surinam grass; Rate 250 g/ha, scale 0 to 10, 0 is no effect, 10 is complete control
  B. signalgrass plant response rating: 2
Surinam grass; Rate 500 g/ha, scale 0 to 10, 0 is no effect, 10 is complete control
  B. signalgrass plant response rating: 6
cocklebur; [1]
  Plant response rating, Cocklebur: 0
cocklebur; [2]
  Cocklebur plant response rating: 3
cocklebur; [3]
  Plant response rating, Cocklebur: 0
cocklebur; [4]
  Cocklebur plant response rating: 0
cocklebur; [5]
  Cocklebur plant response rating: 0
cocklebur; [7]
  Cocklebur plant response rating: 3
cocklebur; [8]
  Cocklebur plant response rating: 0
corn; [1]
  Plant response rating, Corn: 0
corn; [2]
  Corn plant response rating: 0
corn; [3]
  Plant response rating, Corn: 0
corn; [4]
  Corn plant response rating: 0
corn; [5]
  Corn plant response rating: 0
corn; [6]
  Corn plant response rating: 0
corn; [7]
  Corn plant response rating: 0
corn; [8]
  Corn plant response rating: 0
crabgrass; [1]
  Plant response rating, Crabgrass: 3
crabgrass; [2]
  Crabgrass plant response rating: 3
crabgrass; [3]
  Plant response rating, Crabgrass: 9
crabgrass; [4]
  Crabgrass plant response rating: 10
crabgrass; [5]
  Crabgrass plant response rating: 9
crabgrass; [6]
  Crabgrass plant response rating: 8
crabgrass; [7]
  Crabgrass plant response rating: 10
crabgrass; [8]
  Crabgrass plant response rating: 10
Giant foxtail; [2]
  Giant foxtail plant response rating: 9
Giant foxtail; [3]
  Plant response rating, Giant foxtail: 10
Giant foxtail; [4]
  Giant foxtail plant response rating: 10
Giant foxtail; [5]
  Giant foxtail plant response rating: 10
Giant foxtail; [6]
  Giant foxtail plant response rating: 9
Giant foxtail; [7]
  Giant foxtail plant response rating: 9
Giant foxtail; [8]
  Giant foxtail plant response rating: 10
morningglory; [1]
  Plant response rating, Morningglory: 2
morningglory; [2]
  Morningglory plant response rating: 2
morningglory; [3]
  Plant response rating, Morningglory: 0
morningglory; [4]
  Morningglory plant response rating: 0
morningglory; [5]
  Morningglory plant response rating: 0
morningglory; [6]
  Morningglory plant response rating: 8
morningglory; [7]
  Morningglory plant response rating: 9
morningglory; [8]
  Morningglory plant response rating: 0
pigweed; [1]
  Plant response rating, Redroot pigweed: 0
pigweed; [2]
  Redroot pigweed plant response rating: 5
pigweed; [3]
  Plant response rating, Redroot pigweed: 2
pigweed; [4]
  Redroot pigweed plant response rating: 10
pigweed; [5]
  Redroot pigweed plant response rating: 0
pigweed; [6]
  Redroot pigweed plant response rating: 5
pigweed; [7]
  Redroot pigweed plant response rating: 9
pigweed; [8]
  Redroot pigweed plant response rating: 10
rape; [1]
  Plant response rating, Rape: 2
rape; [2]
  Rape plant response rating: 2
rape; [3]
  Plant response rating, Rape: 3
rape; [4]
  Rape plant response rating: 5
rape; [5]
  Rape plant response rating: 0
rape; [6]
  Rape plant response rating: 4
rape; [7]
  Rape plant response rating: 4
rape; [8]
  Rape plant response rating: 5
soybean; [1]
  Plant response rating, Soybean: 4
soybean; [3]
  Plant response rating, Soybean: 0
soybean; [4]
  Soybean plant response rating: 0
soybean; [5]
  Soybean plant response rating: 0
soybean; [6]
  Soybean plant response rating: 6
soybean; [7]
  Soybean plant response rating: 6
soybean; [8]
  Soybean plant response rating: 0
Sugar beet; [1]
  Plant response rating, Sugarbeets: 3
Sugar beet; [3]
  Plant response rating, Sugarbeets: 0
Sugar beet; [4]
  Sugarbeets plant response rating: 3
Sugar beet; [5]
  Sugarbeets plant response rating: 0
Sugar beet; [6]
  Sugarbeets plant response rating: 3
Sugar beet; [7]
  Sugarbeets plant response rating: 3
Sugar beet; [8]
  Sugarbeets plant response rating: 3
velvetleaf; [1]
  Plant response rating, Velvetleaf: 0
velvetleaf; [3]
  Plant response rating, Velvetleaf: 0
velvetleaf; [4]
  Velvetleaf plant response rating: 0
velvetleaf; [5]
  Velvetleaf plant response rating: 0
velvetleaf; [6]
  Velvetleaf plant response rating: 2
velvetleaf; [7]
  Velvetleaf plant response rating: 2
velvetleaf; [8]
  Velvetleaf plant response rating: 2
wheat; [1]
  Plant response rating, Wheat: 0
wheat; [3]
  Plant response rating, Wheat: 0
wheat; [4]
  Wheat plant response rating: 0
wheat; [5]
  Wheat plant response rating: 0
wheat; [6]
  Wheat plant response rating: 5
wheat; [7]
  Wheat plant response rating: 5
wheat; [8]
  Wheat plant response rating: 0
Wild oat; [1]
  Plant response rating, Wild oats: 0
Wild oat; [3]
  Plant response rating, Wild oats: 0
Wild oat; [4]
  Wild oats plant response rating: 7
Wild oat; [5]
  Wild oats plant response rating: 0
Wild oat; [6]
  Wild oats plant response rating: 0
Wild oat; [7]
  Wild oats plant response rating: 0
Wild oat; [8]
  Wild oats plant response rating: 8
Purple nutsedge; [1]
  Plant response rating, Nutsedge: 0
Purple nutsedge; [2]
  Nutsedge plant response rating: 0
Purple nutsedge; [3]
  Plant response rating, Nutsedge: 0
Purple nutsedge; [5]
  Nutsedge plant response rating: 0
Purple nutsedge; [6]
  Nutsedge plant response rating: 0
Purple nutsedge; [7]
  Nutsedge plant response rating: 0
Purple nutsedge; [8]
  Nutsedge plant response rating: 0

— US6737383B1, “Herbicidal oxadiazolidines” (priority 1999, dated 2004)
